Columns and labels:
[1] = molecular target: T1, Alpha-2C adrenergic receptor (Homo sapiens, UniProt P18825); experiment: DRUGMATRIX: Adrenergic Alpha-2C radioligand binding (ligand: [3H] MK-912); format: cell membranes, Sf9, Membrane; conditions: sf9
T1 sequence (P18825 whole entry): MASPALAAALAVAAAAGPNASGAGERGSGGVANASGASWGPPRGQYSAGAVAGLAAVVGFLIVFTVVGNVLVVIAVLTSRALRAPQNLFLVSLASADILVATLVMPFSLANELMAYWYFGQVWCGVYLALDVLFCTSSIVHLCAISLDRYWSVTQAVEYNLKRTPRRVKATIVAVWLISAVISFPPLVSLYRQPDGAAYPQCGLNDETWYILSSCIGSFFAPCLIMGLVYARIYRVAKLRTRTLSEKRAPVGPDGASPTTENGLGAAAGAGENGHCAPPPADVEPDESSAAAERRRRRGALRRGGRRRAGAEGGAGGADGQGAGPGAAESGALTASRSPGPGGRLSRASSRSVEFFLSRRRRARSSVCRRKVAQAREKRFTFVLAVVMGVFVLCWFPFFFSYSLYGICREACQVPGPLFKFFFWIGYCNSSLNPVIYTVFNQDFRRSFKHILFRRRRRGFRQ

[2] = molecular target: Beta-2 adrenergic receptor (Homo sapiens, UniProt P07550); experiment: DRUGMATRIX: Adrenergic beta2 radioligand binding (ligand: [3H] CGP-12177); format: cell membranes, CHO, Membrane; conditions: cho; Not Active = under 50% inhibition at 10 µM
Chain of Beta-2 adrenergic receptor (P07550 whole entry): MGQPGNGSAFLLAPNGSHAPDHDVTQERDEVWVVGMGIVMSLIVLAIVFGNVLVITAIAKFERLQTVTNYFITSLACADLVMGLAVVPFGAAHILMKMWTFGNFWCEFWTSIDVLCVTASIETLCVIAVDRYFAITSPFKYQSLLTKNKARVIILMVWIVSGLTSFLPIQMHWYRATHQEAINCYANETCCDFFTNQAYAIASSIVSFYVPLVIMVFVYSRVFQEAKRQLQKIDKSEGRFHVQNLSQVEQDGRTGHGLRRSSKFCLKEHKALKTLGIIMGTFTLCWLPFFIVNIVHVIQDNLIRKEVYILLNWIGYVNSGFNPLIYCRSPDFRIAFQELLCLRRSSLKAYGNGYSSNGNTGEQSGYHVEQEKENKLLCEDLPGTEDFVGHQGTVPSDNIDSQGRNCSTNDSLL

[3] = molecular target: 5-hydroxytryptamine receptor 6 (Homo sapiens, UniProt P50406); format: cell membranes, HeLa, Membrane; conditions: for Ki: read-out: Ki; as to all read-outs here: in other assays of this panel Not Active means under 50% inhibition at 10 µM
Chain of 5-hydroxytryptamine receptor 6 (P50406 whole entry): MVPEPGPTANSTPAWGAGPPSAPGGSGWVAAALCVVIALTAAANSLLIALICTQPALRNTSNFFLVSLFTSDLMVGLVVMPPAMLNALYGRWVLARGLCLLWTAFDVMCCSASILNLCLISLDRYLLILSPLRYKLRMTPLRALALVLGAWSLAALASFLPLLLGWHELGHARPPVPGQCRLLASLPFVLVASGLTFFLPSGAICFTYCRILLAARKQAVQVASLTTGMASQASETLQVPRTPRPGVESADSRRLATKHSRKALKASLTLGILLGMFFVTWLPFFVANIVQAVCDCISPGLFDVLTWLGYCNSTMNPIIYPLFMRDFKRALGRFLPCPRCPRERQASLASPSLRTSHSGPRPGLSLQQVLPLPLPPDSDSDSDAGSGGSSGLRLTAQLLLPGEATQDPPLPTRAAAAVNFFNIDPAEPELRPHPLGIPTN

[4] = DRUGMATRIX: Phorbol Ester radioligand binding (ligand: [3H] PDBu); format: cell membranes, Mus musculus, ICR, Brain, Membrane; conditions: Not Active = under 50% inhibition at 10 µM
[5] = molecular target: cGMP-specific 3',5'-cyclic phosphodiesterase (Homo sapiens, UniProt O76074); experiment: DRUGMATRIX: Phosphodiesterase PDE5 enzyme inhibition (substrate: [3H]cGMP + cGMP); format: tissue-based; conditions: platelet; Not Active = under 50% inhibition at 10 µM

Structure (SMILES) | IC50 [1] | IC50 [2] | IC50 ([3]; hela) | IC50 [4] | Ki [4] | IC50 [5] | IC50 ([3]; read-out: IC50) [nM] | Ki [3] [nM]
COc1cc(N)nc2[nH]c(-c3ccc(F)cc3)c(-c3ccncc3)c12 | Not Active | Not Active | Not Active | Not Active | Not Active | Not Active | – | –
CNS(=O)(=O)Cc1ccc2[nH]cc(CCN(C)C)c2c1 | Not Active | Not Active | Not Active | Not Active | Not Active | Not Active | – | –
CCCc1nn(C)c2c(=O)[nH]c(-c3cc(S(=O)(=O)N4CCN(C)CC4)ccc3OCC)nc12 | Not Active | Not Active | Not Active | Not Active | Not Active | – | – | –
COc1ccc(/C=C/C(=O)Nc2ccccc2C(=O)O)cc1OC | Not Active | Not Active | Not Active | Not Active | Not Active | Not Active | – | –
CCOC(N)=O | Not Active | Not Active | Not Active | Not Active | Not Active | Not Active | – | –
CC(=O)Nc1nnc(S(N)(=O)=O)s1 [ACETAZOLAMIDE] | Not Active | Not Active | Not Active | – | – | Not Active | – | –
O=c1[nH]c2ccccc2n1CCCN1CCC(n2c(=O)[nH]c3cc(Cl)ccc32)CC1 [DOMPERIDONE] | – | Not Active | Not Active | – | – | Not Active | – | –
CC1=C(CC(=O)O)c2cc(F)ccc2/C1=C\c1ccc(S(C)(=O)=O)cc1 [EXISULIND] | Not Active | Not Active | Not Active | Not Active | Not Active | Not Active | – | –
CC(C)OC(=O)C(C)(C)Oc1ccc(C(=O)c2ccc(Cl)cc2)cc1 [FENOFIBRATE] | Not Active | Not Active | Not Active | – | – | Not Active | – | –
OCCN1CCN(CCCN2c3ccccc3Sc3ccc(C(F)(F)F)cc32)CC1 [FLUPHENAZINE] | – | Not Active | – | – | – | Not Active | 52 | 24
CN1C2CCCC1CC(NC(=O)c1nn(C)c3ccccc13)C2 (centres undefined) [GRANISETRON] | Not Active | Not Active | Not Active | – | – | Not Active | – | –
Nc1nc2c(c(=O)[nH]1)N(C=O)C(CNc1ccc(C(=O)N[C@@H](CCC(=O)O)C(=O)O)cc1)CN2 (some centres undefined) [LEUCOVORIN] | Not Active | Not Active | Not Active | Not Active | Not Active | Not Active | – | –
C[C@@H](O)[C@H]1C(=O)N2C(C(=O)O)=C(S[C@@H]3CN[C@H](C(=O)N(C)C)C3)[C@H](C)[C@H]12 [MEROPENEM] | Not Active | Not Active | Not Active | Not Active | Not Active | Not Active | – | –
CC[C@@H](CO)NC(=O)[C@@H]1C=C2c3cccc4c3c(cn4C)C[C@H]2N(C)C1 [METHYSERGIDE] | Not Active | Not Active | – | – | – | Not Active | 162 | 75
CCN(CC)CC#CCOC(=O)C(O)(c1ccccc1)C1CCCCC1 (centres undefined) [OXYBUTYNIN] | Not Active | Not Active | Not Active | – | – | Not Active | – | –
O=P(O)(O)C(O)(Cc1cccnc1)P(=O)(O)O [RISEDRONIC ACID] | Not Active | Not Active | Not Active | Not Active | Not Active | Not Active | – | –
CN(CCOc1ccc(CC2SC(=O)NC2=O)cc1)c1ccccn1 (centres undefined) [ROSIGLITAZONE] | Not Active | Not Active | Not Active | Not Active | Not Active | Not Active | – | –
C=C(C)[C@H]1Cc2c(ccc3c2O[C@@H]2COc4cc(OC)c(OC)cc4[C@@H]2C3=O)O1 [ROTENONE] | Not Active | Not Active | – | Not Active | Not Active | Not Active | 870 | 404
